In ChEMBL document CHEMBL4482324, “Ash1l inhibitors and methods of treatment therewith” (2017) one finds IC50 data, which are given here for 94 molecules.

Each structure is given as a SMILES string.

The assay concerns the target Histone-lysine N-methyltransferase ASH1L (Homo sapiens, UniProt Q9NR48). The assay is described as follows: Inhibition of MOCR-fused ASH1L SET-BAH ( 2069 to 2833 amino acids) (unknown origin) expressed as in Escherichia coli BL21 (DE3) T1R cells using SAM and chicken mono/dinucleosomes incubated for 1 hr by scintillation counting assay.

For orientation: IC50 means the concentration that inhibits the measured activity by half. A high value points to lower potency.

As to `NC(=S)c1cccc(-c2cn(CC(CO)(C(F)F)C(F)F)c3cc(C(O)CCF)ccc23)c1` (centres undefined), the IC50 is less than 20 µM.

With `NC(=S)c1cccc(-c2cn(CCC(F)F)c3cc(CO)ccc23)n1`, the IC50 was less than 20 µM.

As for `NC(=S)c1ccnc(-c2cn(CC(CF)CF)c3cc(CO)ccc23)c1`, the IC50 was less than 20 µM.

Consider `NCc1ccnc(-n2cccc2)c1`, for which the IC50 is more than 100 µM.

In turn, `COc1ccccc1-c1cccc(C(N)=S)c1` had an IC50 of more than 100 µM.

In the case of `NC(=S)c1cccc(-c2cn(CC3C(F)(F)CC3(F)F)c3cc(CO)ccc23)c1`, the IC50 is less than 20 µM.

The molecule `NC(=S)c1cc(-c2ccc(O)cc2)ccn1` showed an IC50 of more than 100 µM.

In the case of `NC(=S)c1cccc(-c2cn(CC3CC3)c3cc(CO)ccc23)c1`, the IC50 is less than 20 µM.

Consider `Cc1cc(-c2cccc(C(N)=S)c2)c(C)cc1O`, for which the IC50 is more than 100 µM.

`NC(=S)c1cccc(-c2cn(CCC(F)F)c3cc(CNS(=O)(=O)C(F)(F)F)ccc23)c1` had an IC50 of less than 20 µM.

`NCc1cccc2c(-c3cccc(C(N)=S)c3)c[nH]c12` registered an IC50 of 20 to 100 µM.

`CCCS(=O)(=O)N1CCC(n2cc(-c3cccc(C(N)=S)c3)c3ccc(CNc4ncc(N)s4)cc32)CC1` came in with an IC50 of less than 20 µM.

On to `NC(=S)c1cccc(Oc2ccccc2)c1`, for which the half-maximal inhibitory concentration (IC50) was more than 100 µM.

In turn, `NC(=S)c1cccc(-c2cccnc2)c1` yielded an IC50 of more than 100 µM.

With `NC(=S)c1cccc(-c2cn(CCCC(F)(F)F)c3cc(CNCc4cn[nH]n4)ccc23)c1`, the IC50 was less than 20 µM.

As for `NC(=S)c1cccc(-c2cn(CCCC(F)(F)F)c3cc(CNC(=O)c4csc(N)n4)ccc23)c1`, the IC50 is less than 20 µM.

As for `NC(=S)c1cc(-c2cn(CC(CF)CF)c3cc(CO)ccc23)ccc1F`, the IC50 was less than 20 µM.

As for `NC(=S)c1cccc(-c2cn(CC3C(F)(F)COCC3(F)F)c3cc(CO)ccc23)c1`, the IC50 is less than 20 µM.

In turn, `NC(=S)c1c[nH]c(=O)c(-c2cn(CCC(F)F)c3cc(CO)ccc23)c1` had an IC50 of less than 20 µM.

`NC(=S)c1cccc(-c2cn(CCCC(F)(F)F)c3cc(NCC(F)(F)F)ccc23)c1` showed a half-inhibitory concentration (IC50) of less than 20 µM.

As for `NC(=S)c1cccc(-c2cn(C3CCN(S(=O)(=O)CCCNC(=O)c4ccc5c(c4)C(=O)OC54c5ccc(O)cc5Oc5cc(O)ccc54)CC3)c3cc(CNc4nnc(N)s4)ccc23)c1`, the IC50 was less than 20 µM.

`CCCS(=O)(=O)N1CCC(n2cc(-c3cccc(C(N)=S)c3)c3ccc(N)cc32)CC1`: the IC50 is less than 20 µM.

Regarding `NC(=S)c1cccc(-c2cn(C3CNC3)c3cc(CO)ccc23)c1`, the IC50 was less than 20 µM.

The molecule `Cc1cc(O)cc(C)c1-c1cccc(C(N)=S)c1` yielded an IC50 of more than 100 µM.

For the molecule `NC(=S)c1cccc(-c2cn(CCCC(F)(F)F)c3cc(CNCc4c[nH]cn4)ccc23)c1`, the IC50 is less than 20 µM.

`NC(=S)c1cccc(-c2cn(CCO)c3ccccc23)c1`: the IC50 lay within 20 to 100 µM.

In turn, `NC(=S)c1nccs1` showed an IC50 of more than 100 µM.

With `CS(=O)(=O)N1CCC(n2cc(-c3cccc(C(N)=S)c3)c3ccc(CNC(=O)CC4CCNC4)cc32)CC1` (centres undefined), the IC50 is less than 20 µM.

The molecule `NC(=S)c1cccc(-c2c[nH]c3cccc(N)c23)c1` gave an IC50 of more than 100 µM.

`NC(=S)c1cc(-c2cn(CCC(F)F)c3cc(CO)ccc23)c2scnc2c1` yielded an IC50 of less than 20 µM.

Molecule `CCCS(=O)(=O)N1CCC(n2cc(-c3cccc(C(N)=S)c3)c3ccc(CNc4c[nH]c(C)n4)cc32)CC1` came in with an IC50 of less than 20 µM.

As for `NC(=S)c1cccc(-c2ccc(OCCOCCNC(=O)c3ccc(-c4c5ccc(=O)cc-5oc5cc(O)ccc45)c(C(=O)O)c3)c3[nH]ccc23)c1`, the IC50 is more than 100 µM.

`NC(=S)c1cccc(-c2c[nH]c3cc(C(N)=S)ccc23)c1` registered an IC50 of 20 to 100 µM.

On to `CC(C)(C)OC(=O)Nc1nc(CC(=O)NCc2ccc3c(-c4cccc(C(N)=S)c4)cn(CCCC(F)(F)F)c3c2)cs1`, for which the IC50 was less than 20 µM.

For the molecule `NC(=S)c1cccc(-c2cn(C3CCOCC3)c3cc(CNc4nnc(N)s4)ccc23)c1`, the IC50 was less than 20 µM.

In the case of `Nc1ccc2c(-c3ccc4ccnc(N)c4c3)cn(CCC(F)F)c2c1`, the half-maximal inhibitory concentration (IC50) was less than 20 µM.

Consider `NC(=S)c1cccc(-c2cn(CCCC(F)(F)F)c3cc(CNC(=O)c4ccccc4)ccc23)c1`, for which the IC50 was less than 20 µM.

In turn, `NC(=S)c1cccc(-n2cc(CC(CF)CF)c3cc(N)ccc32)c1` registered an IC50 of less than 20 µM.

On to `NC(=S)c1cccc(-c2cccc3[nH]c(CO)cc23)c1`, for which the IC50 was more than 100 µM.

On to `NC(=S)c1cc(O)cc(-c2cccc3[nH]ccc23)c1`, for which the IC50 is more than 100 µM.

In turn, `NC(=S)c1cccc(-c2ccc(O)cc2)c1F` gave an IC50 of more than 100 µM.

With `NC(=S)c1cccc(-n2cccc2)c1`, the IC50 was more than 100 µM.

In the case of `Cc1cc(C)n2c1C=C1C=CC(CCCCC(=O)NCCOCCOc3ccc(-c4cccc(C(N)=S)c4)c4cc[nH]c34)=[N+]1[B-]2(F)F`, the IC50 was more than 100 µM.

`NC(=O)c1cc(-c2cn(CCC(F)F)c3cc(CO)ccc23)ccc1N`: the IC50 was less than 20 µM.

For the molecule `NC(=S)c1cccc(-c2cn(CCC(F)F)c3cc(CO)c(F)cc23)c1`, the IC50 is less than 20 µM.

Regarding `NC(=S)c1cccc(-c2cn(CCC(F)F)c3cc(CNc4c[nH]cn4)ccc23)c1`, the IC50 was less than 20 µM.

Molecule `NCCOCCOc1ccc(-c2cccc(C(N)=S)c2)c2cc[nH]c12` showed an IC50 of 20 to 100 µM.

On to `NC(=S)c1ccsc1`, for which the IC50 is more than 100 µM.

In turn, `NC(=O)c1cccc(-c2cn(CCC(F)F)c3cc(N)ccc23)c1` showed an IC50 of less than 20 µM.

The molecule `NC(=S)c1cccc(-c2ccc(O)cc2)n1` yielded an IC50 of more than 100 µM.

The molecule `NC(=S)c1cccc(-c2cn(Cc3cn[nH]c3)c3cc(N)ccc23)c1` had an IC50 of 20 to 100 µM.

`NC(=S)c1cccc(-c2c[nH]c3cc4cc[nH]c4cc23)c1`: the IC50 was less than 20 µM.

In turn, `NC(=S)c1cccc(-c2ccc(CCC(F)F)c3[nH]cnc23)c1` showed a concentration for half-maximal inhibition (IC50) of less than 20 µM.

For `NC(=S)c1ccc(F)c(-c2ccc(O)cc2)c1`, the IC50 was more than 100 µM.

`NC(=S)c1cccc(-c2cn(C3CCOCC3)c3cc(SCCO)ccc23)c1`: the IC50 is less than 20 µM.

Regarding `NC(=S)c1cccc(-c2ccc(O)c3[nH]ccc23)c1`, the IC50 lay within 20 to 100 µM.

In turn, `CNc1ccc2c(-c3cccc(C(N)=S)c3)c[nH]c2c1` yielded an IC50 of 20 to 100 µM.

On to `NC(=S)c1cc(-c2ccccc2)cs1`, for which the IC50 is more than 100 µM.

For `NC(=S)c1cccc(-n2cc(C3CCCCC3O)c3cc(CO)ccc32)c1` (centres undefined), the IC50 was less than 20 µM.

Turning to `NC(=S)c1cccc(-c2cn(C3CCOCC3)c3cc(CNC(=O)Cc4c[nH]cn4)ccc23)c1`, the IC50 is less than 20 µM.

As to `CCCc1c[nH]c(CC(=O)NCc2ccc3c(-c4cccc(C(N)=S)c4)cn(C4CCN(S(C)(=O)=O)CC4)c3c2)c1`, the IC50 is less than 20 µM.

The molecule `NC(=S)c1cccc(-c2cn(C3CCN(S(=O)(=O)CCCCCc4cccc5c4C(=O)N(C4CCC(=O)NC4=O)C5=O)CC3)c3cc(CNc4nnc(N)s4)ccc23)c1` (centres undefined) came in with an IC50 of less than 20 µM.

`NC(=S)c1cccc(-c2ccccc2)c1`: the IC50 was more than 100 µM.

On to `NC(=S)c1cc(-c2cn(CC(CF)CF)c3cc(CO)ccc23)ccc1O`, for which the IC50 is less than 20 µM.

Take `NCc1ccc2c(c1)c(CC(CF)CF)cn2-c1cccc(C(N)=S)c1`: the IC50 was less than 20 µM.

`NC(=S)c1cccc(-c2cn(CCC(F)F)c3cc(N4CCOCC4)ccc23)c1` returned an IC50 of less than 20 µM.

With `CN(C)CCNc1ccc2c(-c3cccc(C(N)=S)c3)cn(CCCC(F)(F)F)c2c1`, the IC50 was more than 100 µM.

`COc1cc(C(N)=S)cc(-c2cn(CCCC(F)(F)F)c3cc(N)ccc23)c1`: the IC50 is 20 to 100 µM.

`NC(=S)c1cccc(-c2cn(CC3CC(F)C(F)C3)c3cc(CO)ccc23)c1` (centres undefined) displayed an IC50 of less than 20 µM.

As for `Cc1ccc(C(N)=S)cc1-c1cn(C2CCOCC2)c2cc(N)ccc12`, the half-maximal inhibitory concentration (IC50) lay within 20 to 100 µM.

Regarding `CCNc1c[nH]c(CC(=O)NCc2ccc3c(-c4cccc(C(N)=S)c4)cn(C4CCN(S(C)(=O)=O)CC4)c3c2)c1`, the IC50 was less than 20 µM.

As for `NC(=S)c1cccc(-c2cn(CC(O)CO)c3cc(N)ccc23)c1` (centres undefined), the IC50 was less than 20 µM.

`NC(=S)c1cccc(-c2cn(CCC(F)F)c3cc(CO)cc(F)c23)c1`: the IC50 was less than 20 µM.

`NC(=S)c1cccc(-c2cn(CCCC(F)(F)F)c3cc(CO)ccc23)c1` yielded an IC50 of less than 20 µM.

Take `COCc1cc2c(-c3cccc(C(N)=S)c3)cccc2n1C`: the IC50 was 20 to 100 µM.

Consider `NC(=S)c1cccc(-c2ccc(O)c(F)c2)c1`, for which the IC50 was more than 100 µM.

`NC(=S)c1cccc(-c2cn(CC3OCCO3)c3cc(N)ccc23)c1` gave an IC50 of 20 to 100 µM.

Turning to `NC(=S)c1cc(-c2cn(CC(CF)CF)c3cc(CO)ccc23)ccn1`, the IC50 is less than 20 µM.

Take `NC(=S)c1cccc(-c2c[nH]c3cccc(O)c23)c1`: the IC50 was more than 100 µM.

Regarding `NC(=S)c1cccc(-c2cn(CCCC(F)(F)F)c3cc(CN4CCNCC4)ccc23)c1`, the IC50 fell in the range of 20 to 100 µM.

`CCCS(=O)(=O)N1CCC(n2cc(-c3cccc(C(N)=S)c3)c3ccc(CNC(=O)Cc4c[nH]cn4)cc32)CC1` registered a half-maximal inhibitory concentration (IC50) of less than 20 µM.

Turning to `CC(N)c1cccc(-c2cccc3[nH]ccc23)c1` (centres undefined), the IC50 is more than 100 µM.

The molecule `NC(=S)c1cccc(-c2ccccc2O)c1` yielded an IC50 of more than 100 µM.

`NC(=S)c1cccc(-c2ccc(O)c3c2CCC3)c1` had an IC50 of more than 100 µM.

The molecule `NC(=S)c1cccc(-c2cn(C3CCCC3)c3cc(N)ccc23)c1` returned an IC50 of less than 20 µM.

Molecule `CCCOc1nnc(NCc2ccc3c(-c4cccc(C(N)=S)c4)cn(C4CCN(S(C)(=O)=O)CC4)c3c2)s1` came in with an IC50 of less than 20 µM.

As to `NC(=S)c1cccc(-c2cn(CC3(C(F)(F)F)CC3)c3cc(N)ccc23)c1`, the IC50 is less than 20 µM.

`NC(=S)c1cccc(-c2cccc3c2ccn3CCO)c1` gave an IC50 of more than 100 µM.

Consider `NC(=S)c1cccc(-c2cn(CC(F)(F)F)c3cc(N)ccc23)c1`, for which the half-inhibitory concentration (IC50) is less than 20 µM.

Consider `NC(=O)c1cc2c(-c3cccc(C(N)=S)c3)cccc2[nH]1`, for which the IC50 is more than 100 µM.

Molecule `Cc1c(CO)ccc2c(-c3cccc(C(N)=S)c3)cn(CCCC(F)(F)F)c12` registered an IC50 of less than 20 µM.

`NC(=S)c1cccc(-c2cn(CC(CF)CF)c3cc(CO)ccc23)c1` yielded an IC50 of less than 20 µM.

As for `NC(=S)c1cccc(-c2cn(CC(CO)CO)c3cc(N)ccc23)c1`, the IC50 was less than 20 µM.

As to `NC(=S)c1cccc(-c2cc(CCC(F)F)c3[nH]ccc3c2)c1`, the IC50 was less than 20 µM.
